Data published in PubChem BioAssay (NCI).
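Protocol summary: plate cells (96-well), add compound at 5 concentrations, incubate 48 h, interpolate endpoints linearly. TGI denotes the concentration required for complete inhibition of growth.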

What was measured:
Assay in all cases: NCI tumour cell line growth inhibition, 48 h
NCI-H522 lung = test system: NCI-H522 lung
SW-620 colon = test system: SW-620 colon
SNB-75 CNS = test system: SNB-75 CNS
DU-145 prostate = test system: DU-145 prostate
OVCAR-4 ovarian = test system: OVCAR-4 ovarian
EKVX NSCLC = test system: EKVX NSCLC
SK-MEL-28 melanoma = test system: SK-MEL-28 melanoma
OVCAR-3 ovarian = test system: OVCAR-3 ovarian
HCT-15 colon = test system: HCT-15 colon
SR leukemia = test system: SR leukemia
HT29 colon = test system: HT29 colon
IGROV1 ovarian = test system: IGROV1 ovarian
SK-MEL-2 melanoma = test system: SK-MEL-2 melanoma
SN12C renal = test system: SN12C renal
OVCAR-8 ovarian = test system: OVCAR-8 ovarian
MDA-MB-435 = test system: MDA-MB-435
RPMI-8226 leukemia = test system: RPMI-8226 leukemia
HOP-62 NSCLC = test system: HOP-62 NSCLC
OVCAR-5 ovarian = test system: OVCAR-5 ovarian
COLO 205 colon = test system: COLO 205 colon
NCI-H460 lung = test system: NCI-H460 lung
A498 renal = test system: A498 renal
HOP-92 NSCLC = test system: HOP-92 NSCLC
MALME-3M melanoma = test system: MALME-3M melanoma
K-562 leukemia = test system: K-562 leukemia
ACHN renal = test system: ACHN renal
BT-549 breast = test system: BT-549 breast
PC-3 prostate = test system: PC-3 prostate
786-0 renal = test system: 786-0 renal
LOX IMVI melanoma = test system: LOX IMVI melanoma
HCT-116 colon = test system: HCT-116 colon
SF-295 CNS = test system: SF-295 CNS
SNB-19 CNS = test system: SNB-19 CNS
MDA-MB-231 breast = test system: MDA-MB-231 breast
TK-10 renal = test system: TK-10 renal
HCC-2998 colon = test system: HCC-2998 colon
MDA-N = test system: MDA-N
A549 NSCLC = test system: A549 NSCLC
UO-31 renal = test system: UO-31 renal
NCI/ADR-RES ovarian = test system: NCI/ADR-RES ovarian
U251 CNS = test system: U251 CNS
UACC-257 melanoma = test system: UACC-257 melanoma
HL-60(TB) leukemia = test system: HL-60(TB) leukemia
SF-539 CNS = test system: SF-539 CNS
CCRF-CEM leukemia = test system: CCRF-CEM leukemia
MOLT-4 leukemia = test system: MOLT-4 leukemia
SK-OV-3 ovarian = test system: SK-OV-3 ovarian
KM12 colon = test system: KM12 colon
NCI-H226 lung = test system: NCI-H226 lung
NCI-H23 lung = test system: NCI-H23 lung
M14 melanoma = test system: M14 melanoma
CAKI-1 renal = test system: CAKI-1 renal
HS 578T breast = test system: HS 578T breast
RXF 393 renal = test system: RXF 393 renal
T-47D breast = test system: T-47D breast
SF-268 CNS = test system: SF-268 CNS
MCF7 breast = test system: MCF7 breast
SK-MEL-5 melanoma = test system: SK-MEL-5 melanoma
UACC-62 melanoma = test system: UACC-62 melanoma

For `Cc1cc(N(CCC#N)CCC#N)ccc1/C=N/NC(=O)c1ccccc1`, the TGI (NCI-H522 lung) was 39.3 µM, the TGI (SW-620 colon) was > 100 µM and the TGI (SNB-75 CNS) was > 100 µM. For the same compound, the TGI (DU-145 prostate) was > 86.2 µM, the TGI (OVCAR-4 ovarian) was > 100 µM and the TGI (EKVX NSCLC) was > 100 µM. For the same compound, the TGI (SK-MEL-28 melanoma) was > 100 µM, the TGI (OVCAR-3 ovarian) was > 84 µM and the TGI (HCT-15 colon) was > 100 µM. For the same compound, the TGI (SR leukemia) was > 43.2 µM, the TGI (HT29 colon) was 14.2 µM and the TGI (IGROV1 ovarian) was > 100 µM. For the same compound, the TGI (SK-MEL-2 melanoma) was > 100 µM, the TGI (SN12C renal) was > 100 µM and the TGI (OVCAR-8 ovarian) was > 82.8 µM. For the same compound, the TGI (MDA-MB-435) was > 38.9 µM, the TGI (RPMI-8226 leukemia) was > 100 µM and the TGI (HOP-62 NSCLC) was > 100 µM. For the same compound, the TGI (OVCAR-5 ovarian) was > 100 µM, the TGI (COLO 205 colon) was > 100 µM and the TGI (NCI-H460 lung) was > 100 µM. For the same compound, the TGI (A498 renal) was 65.4 µM, the TGI (HOP-92 NSCLC) was > 100 µM and the TGI (MALME-3M melanoma) was > 100 µM. The TGI (K-562 leukemia) was > 100 µM, the TGI (ACHN renal) was > 100 µM and the TGI (BT-549 breast) was > 100 µM. For the same compound, the TGI (PC-3 prostate) was > 100 µM, the TGI (786-0 renal) was > 100 µM and the TGI (LOX IMVI melanoma) was > 100 µM. For the same compound, the TGI (HCT-116 colon) was > 92.6 µM, the TGI (SF-295 CNS) was > 100 µM and the TGI (SNB-19 CNS) was > 100 µM. The TGI (MDA-MB-231 breast) was > 81.3 µM, the TGI (TK-10 renal) was > 100 µM and the TGI (HCC-2998 colon) was 55.1 µM. The TGI (MDA-N) was 10.6 µM, the TGI (A549 NSCLC) was > 100 µM and the TGI (UO-31 renal) was > 100 µM. The TGI (NCI/ADR-RES ovarian) was 36.1 µM, the TGI (U251 CNS) was > 100 µM and the TGI (UACC-257 melanoma) was > 100 µM. For the same compound, the TGI (HL-60(TB) leukemia) was > 27.2 µM, the TGI (SF-539 CNS) was 47.5 µM and the TGI (CCRF-CEM leukemia) was 98.1 µM. For the same compound, the TGI (MOLT-4 leukemia) was > 100 µM, the TGI (SK-OV-3 ovarian) was > 100 µM and the TGI (KM12 colon) was > 100 µM. For the same compound, the TGI (NCI-H226 lung) was 84.1 µM, the TGI (NCI-H23 lung) was > 100 µM and the TGI (M14 melanoma) was > 100 µM. For the same compound, the TGI (CAKI-1 renal) was > 100 µM, the TGI (HS 578T breast) was > 56.5 µM and the TGI (RXF 393 renal) was > 100 µM. For the same compound, the TGI (T-47D breast) was > 100 µM, the TGI (SF-268 CNS) was > 100 µM and the TGI (MCF7 breast) was > 100 µM. For the same compound, the TGI (SK-MEL-5 melanoma) was > 100 µM and the TGI (UACC-62 melanoma) was > 100 µM.

For `C=CCCCCNC(=O)C[C@@H]1C2=C(CC[C@H]1O[Si](C)(C)C(C)(C)C)N1C(=O)CCC/C=C\C1C2` (stereo partly drawn), the TGI (NCI-H522 lung) was 24.7 µM, the TGI (SW-620 colon) was 27.4 µM and the TGI (SNB-75 CNS) was 30.7 µM. For the same compound, the TGI (DU-145 prostate) was 30.1 µM, the TGI (OVCAR-4 ovarian) was 25 µM and the TGI (EKVX NSCLC) was 31.1 µM. For the same compound, the TGI (SK-MEL-28 melanoma) was 29.7 µM, the TGI (OVCAR-3 ovarian) was 28 µM and the TGI (HCT-15 colon) was 27 µM. For the same compound, the TGI (SR leukemia) was 23.4 µM, the TGI (HT29 colon) was 24.7 µM and the TGI (IGROV1 ovarian) was 29.7 µM. The TGI (SK-MEL-2 melanoma) was 26.1 µM, the TGI (SN12C renal) was 28.8 µM and the TGI (OVCAR-8 ovarian) was 28.2 µM. The TGI (MDA-MB-435) was 28.4 µM, the TGI (RPMI-8226 leukemia) was 22.1 µM and the TGI (HOP-62 NSCLC) was 35.5 µM. The TGI (OVCAR-5 ovarian) was 29.5 µM, the TGI (COLO 205 colon) was 26.7 µM and the TGI (NCI-H460 lung) was 27.9 µM. The TGI (A498 renal) was 28.4 µM, the TGI (HOP-92 NSCLC) was 23.1 µM and the TGI (MALME-3M melanoma) was 28.2 µM. For the same compound, the TGI (K-562 leukemia) was 20.9 µM, the TGI (ACHN renal) was 28.7 µM and the TGI (BT-549 breast) was 30.1 µM. For the same compound, the TGI (PC-3 prostate) was 24.4 µM, the TGI (786-0 renal) was 28.7 µM and the TGI (LOX IMVI melanoma) was 31.4 µM. The TGI (HCT-116 colon) was 26 µM, the TGI (SF-295 CNS) was 30.2 µM and the TGI (SNB-19 CNS) was 27.4 µM. The TGI (MDA-MB-231 breast) was 26.1 µM, the TGI (TK-10 renal) was 29.6 µM and the TGI (HCC-2998 colon) was 22.1 µM. It also gave a TGI (MDA-N) of 29.8 µM, a TGI (A549 NSCLC) of 25.8 µM and a TGI (UO-31 renal) of 27.2 µM. It also gave a TGI (NCI/ADR-RES ovarian) of 24.7 µM, a TGI (U251 CNS) of 26.3 µM and a TGI (UACC-257 melanoma) of 25.8 µM. The TGI (HL-60(TB) leukemia) was 13.6 µM, the TGI (SF-539 CNS) was 31.3 µM and the TGI (CCRF-CEM leukemia) was 25.7 µM. For the same compound, the TGI (MOLT-4 leukemia) was 20 µM, the TGI (SK-OV-3 ovarian) was 31.1 µM and the TGI (KM12 colon) was 28.2 µM. It also gave a TGI (NCI-H226 lung) of 29.9 µM, a TGI (NCI-H23 lung) of 27.7 µM and a TGI (M14 melanoma) of 27.4 µM. It also gave a TGI (CAKI-1 renal) of 24.8 µM, a TGI (HS 578T breast) of 32.9 µM and a TGI (RXF 393 renal) of 23.7 µM. The TGI (T-47D breast) was 29.8 µM, the TGI (SF-268 CNS) was 29.9 µM and the TGI (MCF7 breast) was 24.7 µM. It also gave a TGI (SK-MEL-5 melanoma) of 27.1 µM and a TGI (UACC-62 melanoma) of 25.5 µM.
